# Where “and” joins values, the source holds several entries; their conditions need not be identical. Equal values may be shown once.
# B1: MM-121: anti-ErbB3 monoclonal antibody comprising VH and VL sequences as shown in SEQ ID NOs: 1 and 2 (antibody, listed as Homo sapiens, V domains shown)
# VH: EVQLLESGGGLVQPGGSLRLSCAASGFTFSHYVMAWVRQAPGKGLEWVSSISSSGGWTLYADSVKGRFTISRDNSKNTLYLQMNSLRAEDTAVYYCTRGLKMATIFDYWGQGTLVTVSS
# VL: QSALTQPASVSGSPGQSITISCTGTSSDVGSYNVVSWYQQHPGKAPKLIIYEVSQRPSGVSNRFSGSKSGNTASLTISGLQTEDEADYYCCSYAGSSIFVIFGGGTKVTVL
# Legend:
# [1] = tested on: MDA-MB-231 triple negative breast cancer xenograft model; assay: MM-121 combination with targeted and chemotherapies in vivo (Example 5); settings: MM121 300 ug/mouse Q3D, erlotinib 50 mg/kg PO, cetuximab 2 mg/kg Q3D, paclitaxel 10 mg/kg
# Procedure: Balb/c nude mice (female, 4-5 weeks old from Charles River lab) are implanted orthotopically with 10×10^6 cells in mammary pad. Tumors are allowed to reach average of 150 mm^3 in size before randomization into 9 groups of 8 mice, containing mice with a similar size distribution of tumors. […] Treatment is continued for 4 weeks. Tumors are measured twice weekly and tumor volume is calculated as p/6×length×width, where the width is the shorter measurement.
# [2] = tested on: MDA-MB-231 triple negative breast cancer xenograft model; assay: Inhibition of tumor growth in vivo by combination treatment with MM-121 and paclitaxel (Example 4); parameters: species or system Balb/c nude mice; settings: for mean tumor volumes: MM121 150 μg/mouse Q3D ip, paclitaxel 5 mg/kg; for effect on tumor growth (in words): sub-optimal doses, FIG. 3
# Excerpt: Treatment is continued for 4 weeks. […] Results:
# [3] = tested on: MDA-MB-231 human triple negative breast cancer cells; assay: MM-121 effects on MDA-MB-231 xenograft (subcutaneous flank or mammary fat pad); type: in vivo, Balb/c nude mice; settings: MM-121 600 ug per mouse IP every 3 days; FIG. 2
# Procedure: Balb/c nude mice are injected under general anesthesia with 10^7 MDA-MB-231 human triple negative breast cancer cells (ATCC) either subcutaneously in the flank or into the mammary fat pad. Mice with established tumors (i.e., after 7-10 days of tumor growth following injection of cells) are then treated IP with either PBS or MM-121 every 3 days with 600 ug MM-121 per mouse as described in Example 1. Tumor volume is measured twice a week as described in Example 1.
# [4] = tested on: triple negative human mammary carcinoma xenograft MAXF449; assay: Anti-tumor efficacy of MM-121 monotherapy in MAXF449 xenograft; type: in vivo, NMRI nude mice; settings: MM-121 600 μg per mouse IP every three days
# Procedure: An analysis of the anti-tumor efficacy and tolerability of MM-121 treatment of tumor-bearing mice is carried out using triple negative human mammary carcinoma xenograft MAXF449 (ONCOTEST GmbH, Frieburg, Germany) in NMRI nude mice. MAXF449 is a Human tumor explant (histologically described upon explant as solid invasive ductal, and poorly defined) established via subcutaneous injection in serial passages in nude mice. The MAXF449 cells used in these experiments have been passaged 22 times. NMRI nude mice are obtained from Taconic farms, Charles River Laboratories International, or Harlan Laboratories. […]
# To investigate anti-tumor efficacy in monotherapy, MM-121 or vehicle control (100 μL) is given to tumor-bearing mice at 600 μg per mouse (MM-121 as a 6 mg/mL solution in PBS) by IP injection every three days. […] Efficacy is determined by comparing tumor growth between the antibody-treated mice and the vehicle control mice and is expressed as the experimental to control ratio of median relative tumor volumes (T/C value). […]
# Mice are randomized and therapy begins when a sufficient number of individual tumors have grown to a volume of approximately 200 mm3. Tumors are measured (L×W) by digital caliper measurement and the tumor volume is calculated using the formula Pi/6 (W2×L). […]
# [5] = 1st time point column (day head not given; FIG. 3 starts at 28 days following injection)
# [6] = 2nd time point column (day head not given)
# [7] = 3rd time point column (day head not given)
# [8] = 4th time point column (day head not given)
# [9] = 5th time point column (day head not given)
# [10] = 6th time point column (day head not given)
Molecule,mean tumor volumes ([1]; Day 28),mean tumor volumes ([1]; Day 32),mean tumor volumes ([1]; Day 36),mean tumor volumes ([1]; Day 39),mean tumor volumes ([1]; Day 43),mean tumor volumes ([1]; Day 46),mean tumor volumes ([1]; Day 49),mean tumor volumes ([1]; Day 53),"mean tumor volumes [2, 5]","mean tumor volumes [2, 6]","mean tumor volumes [2, 7]","mean tumor volumes [2, 8]","mean tumor volumes [2, 9]","mean tumor volumes [2, 10]",effect on tumor growth (in words) [2],effect on tumor growth (in words) [3],effect on tumor growth (in words) ([4]; FIG. 1),"TGI (tumor growth inhibition) ([4]; MAXF449 xenograft, NMRI nude mice)"
C#Cc1cccc(Nc2ncnc3cc(OCCOC)c(OCCOC)cc23)c1 [erlotinib],172.1 mm^3,182.1 mm^3,216.1 mm^3,273.2 mm^3,252.8 mm^3,245.6 mm^3,303.1 mm^3,327.4 mm^3,–,–,–,–,–,–,–,–,–,–
CC(=O)O[C@H]1C(=O)[C@@]2(C)[C@H]([C@H](OC(=O)c3ccccc3)[C@]3(O)C[C@H](OC(=O)[C@H](O)[C@@H](NC(=O)c4ccccc4)c4ccccc4)C(C)=C1C3(C)C)[C@]1(OC(C)=O)CO[C@@H]1C[C@@H]2O [paclitaxel],155.2 mm^3,167.0 mm^3,182.4 mm^3,216.6 mm^3,228.1 mm^3,247.0 mm^3,292.6 mm^3,383.5 mm^3,97.9 mm^3,113.5 mm^3,144.6 mm^3,166.2 mm^3,178.8 mm^3,202.2 mm^3,inhibited tumor growth,–,–,–
B1,178.6 mm^3,197.3 mm^3,219.1 mm^3,257.8 mm^3,269.4 mm^3,291.4 mm^3,351.3 mm^3,425.0 mm^3,99.4 mm^3,115.5 mm^3,137.5 mm^3,180.4 mm^3,187.2 mm^3,242.7 mm^3,inhibited tumor growth,stopped human triple negative breast cancer tumor growth essentially completely,"inhibited or stopped tumor growth, and in some cases reduced tumor size",approximately 200% and 200%

# Reference: patent US9518130B2, “Use of ERBB3 inhibitors in the treatment of triple negative and basal-like breast cancers” (Merrimack Pharmaceuticals, Inc., priority 2010, dated 2016)
